The values below come from patent publication US20250346575A1, “ISOINDOLINONE DERIVATIVE HAVING GLUTARIMIDE MOTHER NUCLEUS, AND USE THEREOF” (KOREA RESEARCH INSTITUTE OF CHEMICAL TECHNOLOGY, priority 2021, published 2025).

In general, viability refers to a read-out of living cells in per cent, often relative to untreated cells.

Each structure is given as a SMILES string.

In this data set the test system is NCI-H1155 (lung cancer cells). Nature of the data set: CytoX cell viability assay, NCI-H1155. Format: cell-based. As to conditions: for viability at 0.01 µM / viability at 0.5 µM: Homo sapiens, NCI-H1155; for cytotoxic activity against cancer cells, H1155 cells (in words): (6+6) bicyclic heteroaryl compared to (6+5) bicyclic heteroaryl (Compounds 56-58 and 62-70). As to the method:
The survival rate of NCI-H1155 (lung cancer cells) was measured using the CytoX cell viability assay kit (LPS solution, #CYT3000). NCI-H1155 cells were inoculated into 12-well plates. Afterwards, the cells were treated with each compound of the present disclosure and a comparative substance (CC-90009) at concentrations of 10 nM and 500 nM for 72 hours. Then, CytoX solution was added to the cells, incubated for one hour, and the absorbance of each well was read at 450 nm using a microplate reader to calculate the % viability, and the measurements are summarized in Table 2

Regarding `O=C1CCC(N2Cc3cc(CNC(=O)C(F)(F)c4ccc(Cl)cc4)ccc3C2=O)C(=O)N1` (stereo not shown) [CC-90009, reference compound], the “NCI-H1155 (% viability) at 10 nM” value (10 nM, 72 hours) came out at 85.0%. Further, the “NCI-H1155 (% viability) at 500 nM” value (500 nM, 72 hours) worked out at 23.5%.
In the case of `O=C1CCC(N2Cc3cc(CNC(=O)c4cc5ccccc5o4)ccc3C2=O)C(=O)N1` (stereo not shown) [Compound 56, N-((2-(2,6-Dioxopiperidin-3-yl)-1-oxoisoindolin-5-yl)methyl)benzofuran-2-carboxamide], for the setting “10 nM, 72 hours”, the viability at 0.01 µM worked out at 29.8%. The viability at 0.5 µM (500 nM, 72 hours) was found to be 5.94%.
With `COc1ccc2[nH]c(C(=O)NCc3ccc4c(c3)CN(C3CCC(=O)NC3=O)C4=O)cc2c1` (stereo not shown) [Compound 57, N-((2-(2,6-Dioxopiperidin-3-yl)-1-oxoisoindolin-5-yl)methyl)-5-methoxy-1H-indole-2-carboxamide], the viability at 0.01 µM (10 nM, 72 hours) was determined as 83.8%. For the same compound, the viability at 0.5 µM (500 nM, 72 hours) came out at 21.2%.
For `O=C1CCC(N2Cc3cc(CNC(=O)c4cc5ccccc5s4)ccc3C2=O)C(=O)N1` (stereo not shown) [Compound 58, N-((2-(2,6-Dioxopiperidin-3-yl)-1-oxoisoindolin-5-yl)methyl)benzo[b]thiophene-2-carboxamide], in that order: 4.31% and 2.96%.
Regarding `O=C1CCC(N2Cc3cc(CNC(=O)c4cnc5cc(Cl)ccc5c4O)ccc3C2=O)C(=O)N1` (stereo not shown) [Compound 59, 7-chloro-N-((2-(2,6-dioxopiperidin-3-yl)-1-oxoisoindolin-5-yl)methyl)-4-hydroxyquinoline-3-carboxamide], the “cytotoxic activity against cancer cells, H1155 cells (in words)” value (shortened to “cytotoxic activity against cancer cells”) is “less cytotoxic activity”. In addition, the viability at 0.01 µM (10 nM, 72 hours) was 102%. Further, for the setting “500 nM, 72 hours”, the viability at 0.5 µM worked out at 40.1%.
`O=C1CCC(N2Cc3cc(CNC(=O)c4cc5ccccc5oc4=O)ccc3C2=O)C(=O)N1` (stereo not shown) [Compound 60, N-((2-(2,6-Dioxopiperidin-3-yl)-1-oxoisoindolin-5-yl)methyl)-2-oxo-2H-cromene-3-carboxamide]: the “cytotoxic activity against cancer cells” value is “less cytotoxic activity”. In addition, the viability at 0.01 µM (10 nM, 72 hours) was determined as 82%. Also, the viability at 0.5 µM (500 nM, 72 hours) amounted to 22.3%.
As for `O=C1CCC(N2Cc3cc(CNC(=O)c4cnnc5ccccc45)ccc3C2=O)C(=O)N1` (stereo not shown) [Compound 61, N-((2-(2,6-Dioxopiperidin-3-yl)-1-oxoisoindolin-5-yl)methyl)cinnoline-4-carboxamide], the “cytotoxic activity against cancer cells” value is reported as “less cytotoxic activity”. The viability at 0.01 µM (10 nM, 72 hours) is 96.8%. Also, the viability at 0.5 µM (500 nM, 72 hours) amounted to 87.2%.
Consider `Cc1c(C(=O)NCc2ccc3c(c2)CN(C2CCC(=O)NC2=O)C3=O)nn(CC(C)C)c1-c1ccc(Cl)cc1` (stereo not shown) [Compound 62, 5-(4-Chlorophenyl)-N-((2-(2,6-dioxopiperidin-3-yl)-1-oxoisoindolin-5-yl)methyl)-1-isobutyl-4-methyl-1H-pyrazole-3-carboxamide], for which the viability at 0.01 µM (10 nM, 72 hours) came out at 18.9%. In addition, under “500 nM, 72 hours”, the viability at 0.5 µM was found to be 9.56%.
Consider `COc1ccc2sc(C(=O)NCc3ccc4c(c3)CN(C3CCC(=O)NC3=O)C4=O)cc2c1` (stereo not shown) [Compound 65, N-((2-(2,6-Dioxopiperidin-3-yl)-1-oxoisoindolin-5-yl)methyl)-5-methoxybenzo[b]thiophene-2-carboxamide], for which, for the setting “10 nM, 72 hours”, the viability at 0.01 µM came to 31.7%. Under “500 nM, 72 hours”, the viability at 0.5 µM was determined as 23.4%.
The corresponding values for `Cc1ccc2cc(C(=O)NCc3ccc4c(c3)CN(C3CCC(=O)NC3=O)C4=O)sc2c1` (stereo not shown) [Compound 66, N-((2-(2,6-Dioxopiperidin-3-yl)-1-oxoisoindolin-5-yl)methyl)-6-methylbenzo[b]thiophene-2-carboxamide] are 32.1% and 26.1%.
For the compound `Cc1ccc2c(Cl)c(C(=O)NCc3ccc4c(c3)CN(C3CCC(=O)NC3=O)C4=O)sc2c1` (stereo not shown) [Compound 67, 3-Chloro-N-((2-(2,6-dioxopiperidin-3-yl)-1-oxoisoindolin-5-yl)methyl)-6-methylbenzo[b]thiophene-2-carboxamide], under “10 nM, 72 hours”, the viability at 0.01 µM came to 26.1%. Besides, under “500 nM, 72 hours”, the viability at 0.5 µM worked out at 24.4%.
Turning to `COc1ccc2c(Cl)c(C(=O)NCc3ccc4c(c3)CN(C3CCC(=O)NC3=O)C4=O)sc2c1` (stereo not shown) [Compound 68, 3-Chloro-N-((2-(2,6-dioxopiperidin-3-yl)-1-oxoisoindolin-5-yl)methyl)-6-methoxybenzo[b]thiophene-2-carboxamide], under “10 nM, 72 hours”, the viability at 0.01 µM is 29.9%. Besides, the viability at 0.5 µM (500 nM, 72 hours) is 26.4%.
On to `O=C1CCC(N2Cc3cc(CNC(=O)c4cc5cccc(C(F)(F)F)c5s4)ccc3C2=O)C(=O)N1` (stereo not shown) [Compound 71, N-((2-(2,6-Dioxopiperidin-3-yl)-1-oxoisoindolin-5-yl)methyl)-7-(trifluoromethyl)benzo[b]thiophene-2-carboxamide], for which, for the setting “10 nM, 72 hours”, the viability at 0.01 µM stood at 24.2%. Also, the viability at 0.5 µM (500 nM, 72 hours) amounted to 24.4%.
`O=C1CCC(N2Cc3cc(CNC(=O)c4sc5cc(C(F)(F)F)ccc5c4Cl)ccc3C2=O)C(=O)N1` (stereo not shown) [Compound 72, 3-chloro-N-((2-(2,6-dioxopiperidin-3-yl)-1-oxoisoindolin-5-yl)methyl)-6-(trifluoromethyl)benzo[b]thiophene-2-carboxamide]: the viability at 0.01 µM (10 nM, 72 hours) stood at 33%. Also, the viability at 0.5 µM (500 nM, 72 hours) worked out at 24.6%.
The corresponding values for `O=C1CCC(N2Cc3cc(CNC(=O)c4cc5cc(C(F)(F)F)ccc5s4)ccc3C2=O)C(=O)N1` (stereo not shown) [Compound 73, N-((2-(2,6-Dioxopiperidin-3-yl)-1-oxoisoindolin-5-yl)methyl)-5-(trifluoromethyl)benzo[b]thiophene-2-carboxamide] are 40.4% and 26%.
Consider `COc1cccc2sc(C(=O)NCc3ccc4c(c3)CN(C3CCC(=O)NC3=O)C4=O)cc12` (stereo not shown) [Compound 74, N-((2-(2,6-Dioxopiperidin-3-yl)-1-oxoisoindolin-5-yl)methyl)-4-methoxybenzo[b]thiophene-2-carboxamide], for which, for the setting “10 nM, 72 hours”, the viability at 0.01 µM was 26.6%. Further, the viability at 0.5 µM (500 nM, 72 hours) is 25.4%.
Regarding `Cc1c(C(=O)NCc2ccc3c(c2)CN(C2CCC(=O)NC2=O)C3=O)sc2ccc(Cl)cc12` (stereo not shown) [Compound 75, 5-Chloro-N-((2-(2,6-dioxopiperidin-3-yl)-1-oxoisoindolin-5-yl)methyl)-3-methylbenzo[b]thiophene-2-carboxamide], the viability at 0.01 µM (10 nM, 72 hours) was 32.1%. In addition, the viability at 0.5 µM (500 nM, 72 hours) came out at 24.5%.
On to `Cc1c(C(=O)NCc2ccc3c(c2)CN(C2CCC(=O)NC2=O)C3=O)sc2ccccc12` (stereo not shown) [Compound 76, N-((2-(2,6-Dioxopiperidin-3-yl)-1-oxoisoindolin-5-yl)methyl)-3-methylbenzo[b]thiophene-2-carboxamide], for which the viability at 0.01 µM (10 nM, 72 hours) is 28%. Besides, the viability at 0.5 µM (500 nM, 72 hours) worked out at 26.3%.
The corresponding values for `Cc1c(C(=O)NCc2ccc3c(c2)CN(C2CCC(=O)NC2=O)C3=O)sc2cccc(Cl)c12` (stereo not shown) [Compound 77, 4-Chloro-N-((2-(2,6-dioxopiperidin-3-yl)-1-oxoisoindolin-5-yl)methyl)-3-methylbenzo[b]thiophene-2-carboxamide] are 24% and 24%.
As for `Cc1c(C(=O)NCc2ccc3c(c2)CN(C2CCC(=O)NC2=O)C3=O)sc2c(Cl)cccc12` (stereo not shown) [Compound 78, 7-Chloro-N-((2-(2,6-dioxopiperidin-3-yl)-1-oxoisoindolin-5-yl)methyl)-3-methylbenzo[b]thiophene-2-carboxamide], the viability at 0.01 µM (10 nM, 72 hours) was 15.7%. Further, the viability at 0.5 µM (500 nM, 72 hours) is 15.6%.
